Like-named read-outs stand apart in the source and are kept apart here.
Key:
Type in all cases: cell-based
A375 = assay: Cell viability (CellTiter-Blue, 72 h), A375 melanoma cells; conditions: Homo sapiens, A-375, A375, 1% FBS
Protocol: (§1) The following cell lines were tested in this example: Lung Cancer (A549, NCI-H460); Pancreatic cancer (PANC1, Mia-Pa-Ca-2); Melanoma (WM115, A375); Ovarian cancer (OVCAR3, SKOV3); Gastric cancer (MKN45, HGC-27); Renal cancer (ACHN) and Bladder Cancer (RT112).
(§2) Each tumour cell line was maintained in vitro in RPMI 1640+10% heat inactivated FBS and 2 mM L-glutamine (growth media) at 37° C. in 5% CO2 and humidified conditions. The cells were harvested, washed, re-suspended into growth medium and counted. The cells were re-suspended into assay media (RPMI 1640+5% heat inactivated FBS+ and 2 mM L-glutamine) at 4×10^4 cells/ml (dependent upon cell type) and plated into the middle 240 wells of 384 well tissue culture plates (Corning CellBind, black-wall plates) 25 μl/well aliquots; 50 μl of growth media was aliquoted into the outer wells. There were 3 plates for each cell line.
(§3) The plates were incubated overnight at 37° C., in 5% humidified CO2.
(§4) The phytocannabinoid test compounds were prepared in 100% DMSO vehicle at a stock concentration of 20 and 40 mM.
(§5) Starting with the 20 mM stock in DMSO, this was serially diluted (2 fold) in DMSO in a 96-well plate, to 20 (no dilution), 10, 5, 2.5, 1.25, 0.625, 0.315, 0.157 and […]. Following this, 10 ul of each compound dilution was diluted into 990 ul of 1% (v/v) FBS media in a deep well block making the final concentrations of 200, 100, 50, 25, 12.5, 6.25, 3.125, 1.56 and 0.79 μM (2× final assay concentrations and 1% DMSO).
(§6) An equal volume of each cannabinoid in the combination (stock concentration 40 mM) was mixed together to make a stock of 20 mM of each cannabinoid in DMSO. This was serially diluted (2 fold) in DMSO in a 96-well plate, to 20 (no dilution), 10, 5, 2.5, 1.25, 0.625, 0.315, 0.157 and […]. Following this, 10 ul of each combination dilution was diluted into 990 ul of 1% (v/v) FBS media in a deep well block making the final concentrations of 200, 100, 50, 25, 12.5, 6.25, 3.125, 1.56 and 0.79 μM (2× final assay concentrations and 1% DMSO).
(§7) Cisplatin (stock of 1 mg/ml=3.33 mM in water) was diluted in 1% FBS media to give a stock concentration of 1 mM. This was then diluted in 1% FBS media from the stock solution to 200 μM, then serially diluted (3-fold) in 1% FBS media to 200 (no dilution), 66.66, 22.22, 7.41, 2.47, 0.82, 0.27, 0.09, 0.03 μM (2× final assay concentrations; no DMSO).
(§8) The plates were incubated for 72 h at 37° C. in 5% humidified CO2. To develop the plates, at 72 h, 10 μl of CellTiter-Blue™ reagent was added to each test/blank well.
(§9) The plates were incubated at 37° C., 5% humidified CO2. Fluorescence was measured using a Flex II Station plate reader (570 nm excitation wavelength, 600 nm emission wavelength, 590 nm cut-off) after 3 h.
(§10) The phytocannabinoid compounds CBD, CBGA, CBG, CBDA, THCV and THC were tested on a panel of lung (A549, NCI-H460), pancreatic (PANC1, Mia-Pa-Ca-2), melanoma (WM115, A375), ovarian (OVCAR3, SKOV3), gastric (MKN45, HGC-27), renal (ACHN) and bladder (RT112) cancer cell lines according to the protocol for 72 h in media containing 1% FBS.
(§11) The IC50 values for each phytocannabinoid and combination of CBD with the other phytocannabinoids was calculated for each cell line. The raw data values expressed in relative fluorescent units were normalised to the vehicle for each individual plate and any reduction in fluorescence indicated a decrease in viability.
(§12) This calculation was as described in Example 1 above.

MKN45 = assay: Cell viability (CellTiter-Blue, 72 h), MKN45 gastric cancer cells; conditions: Homo sapiens, MKN-45
Protocol: as §1, §2, §3, §4, §5, §6, §7, §8, §9, §10, §11, §12

NCI-H460 = assay: Cell viability (CellTiter-Blue, 72 h), NCI-H460 lung cancer cells; conditions: Homo sapiens
Protocol: as §1, §2, §3, §4, §5, §6
Taxotere SOC was prepared in 100% DMSO to give a stock concentration of 10 mM. This was diluted in DMSO from the stock solution to 200 μM, then serially diluted (3-fold) in DMSO to 200 (no dilution), 66.66, 22.22, 7.41, 2.47, 0.82, 0.27, 0.09, 0.03 μM. 10 ul of each of the taxotere dilutions was diluted in 990 ul of 1% (v/v) FBS media making the final concentrations of 2, 0.67, 0.22, 0.074, 0.0247, 0.0082, 0.0027 0.0009, 0.0003 μM (2× final assay concentrations and 1% DMSO).
as §8, §9, §10, §11, §12

PANC-1 = assay: Cell viability (CellTiter-Blue, 72 h), PANC-1 pancreatic cancer cells; conditions: Homo sapiens, PANC-1, 1% FBS
Protocol: as §1, §2, §3, §4, §5, §6
Gemcitabine SOC was prepared in 100% DMSO to give a stock concentration of 20 mM. This was then serially diluted (3 fold) in DMSO in a 96-well plate, to 20 (no dilution), 6.6, 2.2, 0.741, 0.247, 0.082, 0.027, 0.009 and 0.003 mM. Following this, 10 ul of each dilution was further diluted into 990 ul of 1% (v/v) FBS media making the final concentrations of 200 (no dilution), 66.66, 22.22, 7.41, 2.47, 0.82, 0.27, 0.09, 0.03 μM (2× final assay concentrations and 1% DMSO).
as §8, §9, §10, §11, §12

WM115 = assay: Cell viability (CellTiter-Blue, 72 h), WM115 melanoma cells; conditions: Homo sapiens, WM-115, WM115, 1% FBS
Protocol: as §1, §2, §3, §4, §5, §6, §7, §8, §9, §10, §11, §12

RT112 = assay: Cell viability (CellTiter-Blue, 72 h), RT112 bladder cancer cells; conditions: Homo sapiens, RT-112
Protocol: as §1, §2, §3, §4, §5, §6, §7, §8, §9, §10, §11, §12

[1] = 72 h, read-out: Cell line IC50 value
[2] = read-out: Dm (median effect dose)
[3] = MKN45, 1% FBS, 72 h, read-out: Cell line IC50 value
[4] = MKN45 cells, 1% FBS, read-out: Dm (potency, median effect)
[5] = NCI-H460, 72 h, read-out: Cell line IC50 value
[6] = NCI-H460, read-out: Dm (median effect dose)
[7] = RT112, 1% FBS, 72 h, read-out: Cell line IC50 value
[8] = RT112 cells, 1% FBS, read-out: Dm (potency, median effect)

Q: For `C=C(C)[C@@H]1CCC(C)=C[C@H]1c1c(O)cc(CCCCC)cc1O` [CBD, Cannabidiol], which IC50 (A375; [1]) is on record?
A: The IC50 was 2.9 µM.

Q: And the IC50 (A375; [2])?
A: The IC50 was 2.66 µM.

Q: And the IC50 (MKN45; [3])?
A: The IC50 was 3.4 µM.

Q: What about the IC50 (MKN45; [4]) of the same molecule?
A: Its IC50 is 3.91 µM.

Q: And the IC50 (NCI-H460; [5])?
A: Its IC50 is 2.5 µM.

Q: What about the IC50 (NCI-H460; [6]) of the same molecule?
A: The IC50 was 2.55 µM.

Q: What about the IC50 (PANC-1; [1]) of the same molecule?
A: The IC50 was 3 µM.

Q: What about the IC50 (PANC-1; [2]) of the same molecule?
A: The IC50 was 2.92 µM.

Q: And the IC50 (WM115; [1])?
A: Its IC50 is 2.4 µM.

Q: What about the IC50 (WM115; [2]) of the same molecule?
A: Its IC50 is 2.77 µM.

Q: And the IC50 (RT112; [7])?
A: Its IC50 is 2 µM.

Q: What about the IC50 (RT112; [8]) of the same molecule?
A: Its IC50 is 1.79 µM.

Q: With `C=C(C)[C@@H]1CCC(C)=C[C@H]1c1c(O)cc(CCCCC)c(C(=O)O)c1O` [CBDA, Cannabidiolic acid] as the molecule, how does the IC50 (A375; [1]) read?
A: The IC50 was 10.2 µM.

Q: And the IC50 (A375; [2])?
A: Its IC50 is 9.78 µM.

Q: What about the IC50 (MKN45; [3]) of the same molecule?
A: Its IC50 is 8.8 µM.

Q: What about the IC50 (MKN45; [4]) of the same molecule?
A: Its IC50 is 8.04 µM.

Q: And the IC50 (NCI-H460; [5])?
A: The IC50 was 7.3 µM.

Q: And the IC50 (NCI-H460; [6])?
A: Its IC50 is 6.6 µM.

Q: What about the IC50 (PANC-1; [1]) of the same molecule?
A: The IC50 was 13.1 µM.

Q: And the IC50 (PANC-1; [2])?
A: Its IC50 is 12.6 µM.

Q: What about the IC50 (WM115; [1]) of the same molecule?
A: Its IC50 is 2.1 µM.

Q: What about the IC50 (WM115; [2]) of the same molecule?
A: Its IC50 is 14.7 µM.

Q: And the IC50 (RT112; [7])?
A: The IC50 was 8.2 µM.

Q: And the IC50 (RT112; [8])?
A: The IC50 was 6.36 µM.

Q: For `CCCCCc1cc(O)c(C/C=C(\C)CCC=C(C)C)c(O)c1` [CBG, Cannabigerol], which IC50 (A375; [1]) is on record?
A: The IC50 was 2.1 µM.

Q: What about the IC50 (A375; [2]) of the same molecule?
A: Its IC50 is 1.89 µM.

Q: What about the IC50 (MKN45; [3]) of the same molecule?
A: The IC50 was 4.3 µM.

Q: And the IC50 (MKN45; [4])?
A: The IC50 was 4.16 µM.

Q: And the IC50 (NCI-H460; [5])?
A: The IC50 was 4 µM.

Q: What about the IC50 (NCI-H460; [6]) of the same molecule?
A: The IC50 was 3.96 µM.

Q: What about the IC50 (PANC-1; [1]) of the same molecule?
A: Its IC50 is 3.1 µM.

Q: What about the IC50 (PANC-1; [2]) of the same molecule?
A: The IC50 was 2.88 µM.

Q: And the IC50 (WM115; [1])?
A: The IC50 was 3.1 µM.

Q: What about the IC50 (WM115; [2]) of the same molecule?
A: The IC50 was 3.1 µM.

Q: What about the IC50 (RT112; [7]) of the same molecule?
A: The IC50 was 2.5 µM.

Q: What about the IC50 (RT112; [8]) of the same molecule?
A: The IC50 was 2.14 µM.

Q: What does the source list for `CCCCCc1cc(O)c(C/C=C(\C)CCC=C(C)C)c(O)c1C(=O)O` [CBGA, Cannabigerolic acid]?
A: IC50 (A375; [1]): 7.3 µM; IC50 (A375; [2]): 6.66 µM; IC50 (MKN45; [3]): 6.5 µM; IC50 (MKN45; [4]): 6.4 µM; IC50 (NCI-H460; [5]): 6.2 µM; IC50 (NCI-H460; [6]): 4.03 µM; IC50 (PANC-1; [1]): 8.5 µM; IC50 (PANC-1; [2]): 8.82 µM; IC50 (WM115; [1]): 1.5 µM; IC50 (WM115; [2]): 12.9 µM; IC50 (RT112; [7]): 9.8 µM; IC50 (RT112; [8]): 9.72 µM

Q: Which IC50 (A375; [1]) does the source give for `CCCCCc1cc(O)c2c(c1)OC(C)(C)[C@@H]1CCC(C)=C[C@@H]21` [THC, Tetrahydrocannabinol, reference compound] here?
A: Its IC50 is 2.7 µM.

Q: And the IC50 (A375; [2])?
A: Its IC50 is 2.47 µM.

Q: What about the IC50 (MKN45; [3]) of the same molecule?
A: Its IC50 is 4.2 µM.

Q: What about the IC50 (MKN45; [4]) of the same molecule?
A: Its IC50 is 4.42 µM.

Q: And the IC50 (NCI-H460; [5])?
A: The IC50 was 3.8 µM.

Q: What about the IC50 (NCI-H460; [6]) of the same molecule?
A: Its IC50 is 3.28 µM.

Q: What about the IC50 (PANC-1; [1]) of the same molecule?
A: Its IC50 is 3 µM.

Q: What about the IC50 (PANC-1; [2]) of the same molecule?
A: The IC50 was 3.15 µM.

Q: What about the IC50 (WM115; [1]) of the same molecule?
A: The IC50 was 2.9 µM.

Q: And the IC50 (WM115; [2])?
A: Its IC50 is 3.17 µM.

Q: What about the IC50 (RT112; [7]) of the same molecule?
A: Its IC50 is 3.6 µM.

Q: And the IC50 (RT112; [8])?
A: The IC50 was 3.09 µM.

Q: What does the source list for `CCCc1cc(O)c2c(c1)OC(C)(C)[C@@H]1CCC(C)=C[C@@H]21` [THCV, Tetrahydrocannabivarin]?
A: IC50 (A375; [1]): 5 µM; IC50 (A375; [2]): 5.54 µM; IC50 (MKN45; [3]): 6.5 µM; IC50 (MKN45; [4]): 6.88 µM; IC50 (NCI-H460; [5]): 4.6 µM; IC50 (NCI-H460; [6]): 4.53 µM; IC50 (PANC-1; [1]): 6.5 µM; IC50 (PANC-1; [2]): 6.46 µM; IC50 (WM115; [1]): 6.5 µM; IC50 (WM115; [2]): 6.43 µM; IC50 (RT112; [7]): 4.7 µM; IC50 (RT112; [8]): 4.75 µM

Q: Which IC50 (NCI-H460; [5]) does the source give for `CC(=O)O[C@@]12CO[C@@H]1C[C@H](O)[C@@]1(C)C(=O)[C@H](O)C3=C(C)[C@@H](OC(=O)[C@H](O)[C@@H](NC(=O)OC(C)(C)C)c4ccccc4)C[C@@](O)([C@@H](OC(=O)c4ccccc4)[C@H]21)C3(C)C` [Taxotere, Docetaxel, reference compound] here?
A: Its IC50 is 0.0011 µM.
